According to ChEMBL document CHEMBL1201862, “PubChem BioAssay data set” (2004):
Activity calls are given as the source filed them.

Columns and labels:
Streptokinase A = target: T1, Streptokinase A (Streptococcus pyogenes serotype M1, UniProt P10520); assay: viability-normalized secreted streptokinase activity reduction – plasminogen activation absorbance, OD405, dose response (AID 1914); assay type: functional, Streptococcus pyogenes M1 GAS;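 note: secreted streptokinase activity via plasminogen activation per viability signal from cell pellet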
T1 sequence (P10520 whole entry): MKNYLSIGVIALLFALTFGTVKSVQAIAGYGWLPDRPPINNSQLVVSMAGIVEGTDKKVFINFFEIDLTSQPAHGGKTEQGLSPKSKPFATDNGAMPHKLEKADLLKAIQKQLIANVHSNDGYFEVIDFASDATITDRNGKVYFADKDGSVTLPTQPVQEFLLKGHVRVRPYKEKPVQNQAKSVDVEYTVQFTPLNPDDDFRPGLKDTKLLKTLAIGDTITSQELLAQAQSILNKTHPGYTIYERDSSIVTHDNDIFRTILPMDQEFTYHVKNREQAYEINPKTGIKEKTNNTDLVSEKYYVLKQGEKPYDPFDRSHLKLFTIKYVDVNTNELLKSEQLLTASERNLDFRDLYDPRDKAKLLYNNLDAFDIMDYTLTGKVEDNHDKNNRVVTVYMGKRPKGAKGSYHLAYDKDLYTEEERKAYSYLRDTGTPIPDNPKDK

Tumor necrosis factor = Tumor necrosis factor (Homo sapiens, UniProt P01375); assay: analog potency on TNFa NF-kB signaling – cell-based, revised, SAR follow-up (AID 2337); assay type: functional
Tumor necrosis factor, sequence (P01375 whole entry, the tested form may be a part): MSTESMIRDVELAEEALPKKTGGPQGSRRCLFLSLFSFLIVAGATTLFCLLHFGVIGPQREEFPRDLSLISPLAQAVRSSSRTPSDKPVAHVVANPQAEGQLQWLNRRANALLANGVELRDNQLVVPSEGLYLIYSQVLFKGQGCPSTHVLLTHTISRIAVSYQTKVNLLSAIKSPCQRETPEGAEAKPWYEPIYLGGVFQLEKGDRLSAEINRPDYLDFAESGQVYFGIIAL

[1] = target: T2, Nucleotide-binding oligomerization domain-containing protein 1 (Homo sapiens, UniProt Q9Y239); assay: blockers of NOD1 pathway activity – revised, SAR follow-up (AID 2333); assay type: functional
T2 sequence (Q9Y239 whole entry): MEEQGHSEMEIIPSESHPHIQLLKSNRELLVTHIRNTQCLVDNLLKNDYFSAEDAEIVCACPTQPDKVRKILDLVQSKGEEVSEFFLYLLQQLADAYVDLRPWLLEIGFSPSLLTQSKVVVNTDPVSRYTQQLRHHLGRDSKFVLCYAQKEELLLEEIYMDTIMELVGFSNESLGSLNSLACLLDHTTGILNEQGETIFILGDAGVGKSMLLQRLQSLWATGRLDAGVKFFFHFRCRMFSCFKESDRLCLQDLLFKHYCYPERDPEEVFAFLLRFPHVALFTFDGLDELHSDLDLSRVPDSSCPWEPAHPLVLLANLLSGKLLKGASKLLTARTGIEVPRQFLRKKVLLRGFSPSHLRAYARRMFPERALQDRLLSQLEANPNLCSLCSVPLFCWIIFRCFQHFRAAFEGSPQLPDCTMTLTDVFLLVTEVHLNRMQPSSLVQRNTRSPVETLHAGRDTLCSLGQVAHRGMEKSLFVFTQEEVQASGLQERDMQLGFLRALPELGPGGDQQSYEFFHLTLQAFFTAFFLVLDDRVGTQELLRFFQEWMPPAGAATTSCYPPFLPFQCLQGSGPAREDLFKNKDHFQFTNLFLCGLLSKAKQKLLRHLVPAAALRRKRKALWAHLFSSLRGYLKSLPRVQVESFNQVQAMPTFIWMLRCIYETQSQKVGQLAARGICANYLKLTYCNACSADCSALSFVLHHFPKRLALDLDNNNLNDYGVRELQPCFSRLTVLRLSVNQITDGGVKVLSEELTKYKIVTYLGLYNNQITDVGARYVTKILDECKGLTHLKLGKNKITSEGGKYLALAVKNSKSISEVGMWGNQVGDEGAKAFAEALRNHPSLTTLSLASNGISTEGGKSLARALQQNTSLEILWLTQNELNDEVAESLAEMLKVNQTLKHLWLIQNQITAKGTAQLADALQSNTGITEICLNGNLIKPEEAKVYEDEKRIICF

[2] = target: Nucleotide-binding oligomerization domain-containing protein 2 (Homo sapiens, UniProt Q9HC29); assay: PubChem AID 2334; assay type: functional
Nucleotide-binding oligomerization domain-containing protein 2, sequence (Q9HC29 whole entry, the tested form may be a part): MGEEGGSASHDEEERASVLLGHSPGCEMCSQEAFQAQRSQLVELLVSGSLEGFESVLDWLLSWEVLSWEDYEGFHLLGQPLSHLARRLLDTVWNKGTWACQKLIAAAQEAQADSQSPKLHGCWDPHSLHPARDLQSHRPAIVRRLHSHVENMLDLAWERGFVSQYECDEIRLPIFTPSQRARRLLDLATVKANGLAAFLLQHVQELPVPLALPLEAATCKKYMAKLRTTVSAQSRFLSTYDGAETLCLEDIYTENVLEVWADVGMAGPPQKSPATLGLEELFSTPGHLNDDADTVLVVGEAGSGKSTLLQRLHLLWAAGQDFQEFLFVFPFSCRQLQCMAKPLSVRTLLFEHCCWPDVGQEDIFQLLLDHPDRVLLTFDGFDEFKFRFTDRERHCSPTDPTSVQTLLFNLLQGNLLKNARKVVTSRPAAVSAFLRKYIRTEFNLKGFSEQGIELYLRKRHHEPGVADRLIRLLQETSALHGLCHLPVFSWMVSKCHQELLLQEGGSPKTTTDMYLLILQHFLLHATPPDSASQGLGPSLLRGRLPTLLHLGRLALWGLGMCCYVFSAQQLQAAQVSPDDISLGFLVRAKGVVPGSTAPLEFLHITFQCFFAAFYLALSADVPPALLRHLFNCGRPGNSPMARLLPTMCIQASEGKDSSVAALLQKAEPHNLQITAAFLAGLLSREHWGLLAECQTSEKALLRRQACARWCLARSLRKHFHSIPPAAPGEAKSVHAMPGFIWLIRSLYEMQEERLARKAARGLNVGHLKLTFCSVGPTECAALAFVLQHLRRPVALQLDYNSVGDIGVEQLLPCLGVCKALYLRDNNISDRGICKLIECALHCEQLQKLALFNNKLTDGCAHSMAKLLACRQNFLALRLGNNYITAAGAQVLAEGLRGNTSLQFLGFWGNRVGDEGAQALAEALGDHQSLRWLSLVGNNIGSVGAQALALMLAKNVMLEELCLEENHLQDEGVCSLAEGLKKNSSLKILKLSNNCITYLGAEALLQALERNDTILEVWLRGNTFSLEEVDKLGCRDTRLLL

[3] = target: T3, Corticotropin-releasing factor receptor 2/Corticotropin-releasing factor-binding protein (Homo sapiens, UniProt P24387+Q13324); assay: Dose Response confirmation of uHTS hits for small molecule antagonists of the CRF-binding protein and CRF-R2 receptor complex.; assay type: functional; conditions: read-out: IC50_Mean
T3 sequence (Q13324 whole entry): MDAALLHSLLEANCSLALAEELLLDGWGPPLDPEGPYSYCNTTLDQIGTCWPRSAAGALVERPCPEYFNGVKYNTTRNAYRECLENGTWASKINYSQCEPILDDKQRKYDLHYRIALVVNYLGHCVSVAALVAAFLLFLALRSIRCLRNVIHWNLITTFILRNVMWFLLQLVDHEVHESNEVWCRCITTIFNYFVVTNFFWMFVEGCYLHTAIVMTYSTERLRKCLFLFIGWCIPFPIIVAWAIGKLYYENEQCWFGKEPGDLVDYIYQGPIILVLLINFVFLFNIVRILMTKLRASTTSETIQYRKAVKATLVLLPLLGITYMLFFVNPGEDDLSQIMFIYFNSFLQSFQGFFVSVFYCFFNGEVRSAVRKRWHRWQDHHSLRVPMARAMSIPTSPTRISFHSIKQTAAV
T3 sequence (P24387 whole entry): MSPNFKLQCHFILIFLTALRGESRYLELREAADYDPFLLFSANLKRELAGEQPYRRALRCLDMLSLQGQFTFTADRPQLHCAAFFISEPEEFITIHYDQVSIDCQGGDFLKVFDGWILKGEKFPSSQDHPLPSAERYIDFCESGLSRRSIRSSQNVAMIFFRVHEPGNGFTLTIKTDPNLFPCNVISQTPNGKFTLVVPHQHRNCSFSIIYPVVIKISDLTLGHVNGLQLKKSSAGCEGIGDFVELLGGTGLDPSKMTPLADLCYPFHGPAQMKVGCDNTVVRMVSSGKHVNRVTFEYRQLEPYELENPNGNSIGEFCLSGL

[4] = target: T3, Corticotropin-releasing factor receptor 2/Corticotropin-releasing factor-binding protein; assay: activators of CRF receptor 2 with binding protein – uHTS hits, confirmation (AID 602473); assay type: functional; conditions: read-out: EC50_Mean
[5] = Luminescence Cell-Based Dose Retest to Confirm Inhibitors of Cancer Stem Cells. [Related pubchem assays (depositor defined):AID2717, AID2721]; assay type: functional; conditions: Homo sapiens
X-box-binding protein 1 = X-box-binding protein 1 (Homo sapiens, UniProt P17861); assay type: functional, Cricetulus griseus;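 note: confirmatory dose-response counter-screen serving a CHOP assay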
X-box-binding protein 1, sequence (P17861 whole entry): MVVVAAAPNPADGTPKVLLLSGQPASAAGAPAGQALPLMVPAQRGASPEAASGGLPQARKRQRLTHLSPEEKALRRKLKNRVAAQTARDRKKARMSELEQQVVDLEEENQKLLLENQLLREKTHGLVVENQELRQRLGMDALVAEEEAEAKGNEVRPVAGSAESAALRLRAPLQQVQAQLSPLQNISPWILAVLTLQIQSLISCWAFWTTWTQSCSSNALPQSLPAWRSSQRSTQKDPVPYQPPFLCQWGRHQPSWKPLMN

[6] = target: DNA dC->dU-editing enzyme APOBEC-3G (Homo sapiens, UniProt Q9HC16); assay: Dose Response confirmation of small molecule APOBEC3G DNA Deaminase Inhibitors via a fluorescence-based single-stranded DNA deaminase assay. [Related pubchem assays (depositor defined):AID493012, AID493028]; assay type: functional
DNA dC->dU-editing enzyme APOBEC-3G, sequence (Q9HC16 whole entry): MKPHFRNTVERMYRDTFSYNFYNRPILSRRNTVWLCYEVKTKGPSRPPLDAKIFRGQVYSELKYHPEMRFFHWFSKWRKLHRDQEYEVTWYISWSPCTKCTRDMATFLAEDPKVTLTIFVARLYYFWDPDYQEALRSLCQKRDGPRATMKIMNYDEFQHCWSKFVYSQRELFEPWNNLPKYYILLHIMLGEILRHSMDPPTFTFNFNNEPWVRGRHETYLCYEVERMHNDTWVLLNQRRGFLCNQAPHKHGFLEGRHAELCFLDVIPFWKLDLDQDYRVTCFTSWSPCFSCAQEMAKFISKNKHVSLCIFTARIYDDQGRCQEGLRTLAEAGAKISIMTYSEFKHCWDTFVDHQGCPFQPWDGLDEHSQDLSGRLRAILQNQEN

[7] = Luminescence Cell-Based Dose Response HTS to Identify Activators of Luciferase Translation or Activity in H4 […] Cells. [Related pubchem assays: 1829 (Project Summary), 1814 (Primary HTS)]; assay type: functional
[8] = target: Cyclin-dependent kinase 5/CDK5 activator 1 (Homo sapiens, UniProt Q00535); assay: blockade of human CDK5 activity – biochemical, cherry-picked samples, set 2, dose response (AID 504545)
Cyclin-dependent kinase 5/CDK5 activator 1, sequence (Q00535 whole entry): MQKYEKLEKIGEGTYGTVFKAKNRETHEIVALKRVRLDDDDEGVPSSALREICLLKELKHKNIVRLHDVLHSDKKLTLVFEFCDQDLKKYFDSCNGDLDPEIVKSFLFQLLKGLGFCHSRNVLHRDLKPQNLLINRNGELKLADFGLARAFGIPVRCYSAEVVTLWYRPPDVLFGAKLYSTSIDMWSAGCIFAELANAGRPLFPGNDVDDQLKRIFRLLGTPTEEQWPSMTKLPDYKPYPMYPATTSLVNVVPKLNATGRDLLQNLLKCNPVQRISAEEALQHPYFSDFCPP
Cyclin-dependent kinase 5/CDK5 activator 1, sequence (Q15078 whole entry, further chain): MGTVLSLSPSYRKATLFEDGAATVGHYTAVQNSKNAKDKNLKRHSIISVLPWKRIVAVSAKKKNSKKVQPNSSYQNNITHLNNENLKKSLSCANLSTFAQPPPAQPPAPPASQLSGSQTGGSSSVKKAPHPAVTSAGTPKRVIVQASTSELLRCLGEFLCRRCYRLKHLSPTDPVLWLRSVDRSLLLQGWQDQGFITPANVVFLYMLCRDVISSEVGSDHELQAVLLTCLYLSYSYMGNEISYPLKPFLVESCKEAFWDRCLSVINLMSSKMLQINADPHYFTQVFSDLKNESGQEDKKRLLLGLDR

[9] = target: Neuropeptides B/W receptor type 1 (Homo sapiens, UniProt P48145); assay: Fluorescence-based dose response cell-based high throughput screening assay to identify antagonists of the G-protein coupled receptor 7 (GPR7). [Related pubchem assays: 1952 (Screening assay (GPR7 antagonists).), 1880 (Summary AID.)]; assay type: functional
Neuropeptides B/W receptor type 1, sequence (P48145 whole entry): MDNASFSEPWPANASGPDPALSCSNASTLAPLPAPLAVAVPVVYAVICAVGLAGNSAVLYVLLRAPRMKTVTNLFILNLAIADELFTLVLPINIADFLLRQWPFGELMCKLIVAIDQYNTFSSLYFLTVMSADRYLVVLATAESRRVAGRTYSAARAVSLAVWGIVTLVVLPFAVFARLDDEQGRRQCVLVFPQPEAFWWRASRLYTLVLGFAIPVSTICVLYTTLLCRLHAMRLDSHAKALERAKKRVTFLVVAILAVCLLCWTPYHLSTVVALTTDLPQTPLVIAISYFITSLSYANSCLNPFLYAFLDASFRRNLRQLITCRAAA

[10] = target: Melanin-concentrating hormone receptor 1 (Homo sapiens, UniProt Q99705); assay: Fluorescence-based counterscreen for antagonists of the G-protein coupled receptor 7 (GPR7): cell-based high throughput dose response assay to identify antagonists of the melanin-concentrating hormone receptor 1 (MCHR1).; assay type: functional
Melanin-concentrating hormone receptor 1, sequence (Q99705 whole entry): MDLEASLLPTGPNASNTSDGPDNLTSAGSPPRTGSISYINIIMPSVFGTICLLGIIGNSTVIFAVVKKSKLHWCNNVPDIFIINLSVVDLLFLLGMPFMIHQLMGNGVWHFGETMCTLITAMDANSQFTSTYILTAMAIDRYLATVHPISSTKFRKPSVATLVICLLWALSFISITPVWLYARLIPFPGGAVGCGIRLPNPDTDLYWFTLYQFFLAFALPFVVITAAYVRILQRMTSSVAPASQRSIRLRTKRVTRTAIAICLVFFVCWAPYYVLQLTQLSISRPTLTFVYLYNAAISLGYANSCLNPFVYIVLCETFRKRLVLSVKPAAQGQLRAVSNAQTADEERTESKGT

[11] = luciferase reporter signal suppression in cells – H4 neuroglioma cells, luminescence, dose response (AID 1990); assay type: functional, cell-based
[12] = luciferase reporter signal reduction – luminescence, H4-C neuroglioblastoma cells, dose response (AID 2458); assay type: functional, cell-based;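 note: H4 neuroglioblastoma cells stably carrying a luciferase reporter gene fusion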
[13] = test system: Streptococcus sp. 'group A'; assay: Streptococcus pyogenes SK(-)GAS viability under kanamycin – luminescence, BacTiterGlo, confirmation, counter-screen for streptokinase expression inhibitor project, dose response (AID 1900); assay type: functional, organism-based
cells [14] = assay type: functional, cell-based
[15] = alpha-synuclein stem-loop luciferase translation blockers – H4 neuroglioma cells, luminescence, confirmation (AID 1988); assay type: functional, cell-based
Streptococcus = assay: GAS UMAA2166 growth inhibition – luminescence, BacTiterGlo, counter-screen for streptokinase expression inhibitor project, dose response (AID 1915); assay type: functional, organism-based;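 note: potency for reduction of bacterial viability or growth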
[16] = alpha-synuclein stem-loop translation blockers – luminescence, H4 neuroglioblastoma cells, dose confirmation, confirmation (AID 2454); assay type: functional, cell-based;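 note: H4 neuroglioblastoma cells carrying an alpha-synuclein 5'UTR luciferase reporter; potency for inhibition of the luciferase signal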
[17] = THP-1 cell cytotoxicity, dose response, cytotoxicity control for non-replicating M. tuberculosis project (AID 489025); assay type: functional
[18] = HepG2 cell cytotoxicity, dose response, cytotoxicity control for non-replicating M. tuberculosis project (AID 489018); assay type: functional; conditions: Mycobacterium tuberculosis
[19] = Vero E6 cell cytotoxicity, dose response, cytotoxicity control for non-replicating M. tuberculosis project, secondary assay (AID 492998); assay type: functional, VeroE6; conditions: Vero C1008
[20] = HEK-293T viability loss after treatment – luminescence, T-cell screen hits, cytotoxicity control for TCR NF-kB inhibitor project, dose response (AID 489026); assay type: functional, cell-based;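 note: cells exposed to compound about 14 hours before the viability readout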
[21] = target: T4, Heat shock factor protein 1 (Mus musculus, UniProt P38532); assay: enhancement of HSF1-driven luciferase signal – cell-based, NIH3T3, luminescence, dose retest, confirmation (AID 435004); assay type: functional;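 note: stress induced by proteasome inhibitor MG132 added 30 min after compound; luciferase reporter driven by HSF1 response element in NIH3T3 cells; actives raise luminescence as potentiators of the MG132 stress response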
T4 sequence (P38532 whole entry): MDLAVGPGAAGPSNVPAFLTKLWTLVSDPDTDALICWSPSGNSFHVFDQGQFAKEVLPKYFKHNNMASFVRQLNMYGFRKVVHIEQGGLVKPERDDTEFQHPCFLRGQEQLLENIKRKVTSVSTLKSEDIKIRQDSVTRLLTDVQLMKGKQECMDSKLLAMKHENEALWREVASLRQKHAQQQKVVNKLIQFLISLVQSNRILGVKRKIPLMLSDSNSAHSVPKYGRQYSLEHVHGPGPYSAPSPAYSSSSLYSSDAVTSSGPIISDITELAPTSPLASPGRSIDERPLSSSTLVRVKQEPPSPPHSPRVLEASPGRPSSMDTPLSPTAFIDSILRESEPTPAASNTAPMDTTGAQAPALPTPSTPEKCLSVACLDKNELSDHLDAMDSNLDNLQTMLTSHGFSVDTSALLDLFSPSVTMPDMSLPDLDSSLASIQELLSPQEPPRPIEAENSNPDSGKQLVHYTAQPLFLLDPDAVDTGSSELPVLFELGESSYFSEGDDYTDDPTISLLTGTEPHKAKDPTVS

cells [22] = assay type: functional
[23] = target: T5, DNA repair and recombination protein RAD54-like (Homo sapiens, UniProt Q92698); assay: RAD54 Holliday junction migration blockers – biochemical, fluorescence, cherry-picked samples, dose series, confirmation (AID 651657); assay type: functional
T5 sequence (Q92698 whole entry): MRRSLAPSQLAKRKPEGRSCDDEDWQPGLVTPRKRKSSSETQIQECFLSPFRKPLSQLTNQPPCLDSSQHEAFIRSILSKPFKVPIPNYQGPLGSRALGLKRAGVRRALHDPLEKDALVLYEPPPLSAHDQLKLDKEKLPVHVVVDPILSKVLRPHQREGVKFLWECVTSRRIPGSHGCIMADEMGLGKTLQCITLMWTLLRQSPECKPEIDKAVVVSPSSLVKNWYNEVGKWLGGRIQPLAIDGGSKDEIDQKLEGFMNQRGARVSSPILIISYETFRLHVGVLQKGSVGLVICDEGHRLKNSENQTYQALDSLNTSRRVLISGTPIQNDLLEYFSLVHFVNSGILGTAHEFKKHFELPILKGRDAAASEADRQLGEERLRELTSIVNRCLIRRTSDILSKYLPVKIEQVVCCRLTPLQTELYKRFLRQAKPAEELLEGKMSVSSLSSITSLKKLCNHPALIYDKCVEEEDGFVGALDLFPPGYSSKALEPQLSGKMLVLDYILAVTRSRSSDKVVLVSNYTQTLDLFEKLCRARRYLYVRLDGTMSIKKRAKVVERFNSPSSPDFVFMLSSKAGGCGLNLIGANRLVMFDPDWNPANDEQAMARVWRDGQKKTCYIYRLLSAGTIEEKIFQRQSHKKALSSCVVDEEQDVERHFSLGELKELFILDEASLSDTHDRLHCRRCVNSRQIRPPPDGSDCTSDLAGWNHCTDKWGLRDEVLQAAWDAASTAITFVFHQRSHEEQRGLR

With `Cc1ccc(SCc2cc(=O)[nH]c(SCC(=O)Nc3cc(Cl)ccc3Cl)n2)cc1` the EC50 (Streptokinase A) was 42.6 µM (inconclusive), the IC50 (Tumor necrosis factor) was 8.65 µM (active) and the IC50 [1] was 7.37 µM (active). For the same compound, the IC50 [2] was 9.95 µM (active), the IC50 [3] was 5.65 µM (active) and the EC50 [4] was > 53 µM (inactive).
With `Cc1[nH]c2ccccc2c1/C=N/NC(=O)C1CC1(c1ccccc1)c1ccccc1` (stereo not drawn) the AC50 [5] was 3.79 µM (active) and the “Absolute IC50 (XBP1)” value (X-box-binding protein 1) was 10 µM.
In the case of `CC(=O)c1sc2nsc(SCCN3CCOCC3)c2c1N`, the IC50 [6] is reported as 34.4 µM (active).
For `Nc1nc(Nc2ccccc2F)sc1C(=O)c1ccccc1`, the EC50 [7] was 159 nM (active) and the AC50 [8] was 60 µM (active).
With `O=C(NC1CCCCCCC1)C1c2ccccc2C(=O)N1Cc1cccs1` (stereo not drawn) the IC50 [9] was > 43.8 µM (not active) and the IC50 [10] was 15.9 µM (not active).
In the case of `COC(=O)c1c(NC(=O)c2ccc([N+](=O)[O-])o2)sc2c1CCN(C(C)C)C2`, the EC50 [11] is reported as > 120 µM (not active), the EC50 [12] is reported as 1.29 µM (active) and the EC50 [13] is reported as 4.11 µM (active). For the same compound, the EC50 (cells [14]) was 11.8 µM (active), the EC50 [15] was < 100 nM (active) and the EC50 (Streptococcus) was 7.32 µM (active). For the same compound, the EC50 [16] was 1.52 µM (active), the CC50 [17] was 1.5 µM (active) and the CC50 [18] was 6.72 µM (active). For the same compound, the CC50 [19] was 370 nM (active), the IC50 [20] was > 80 µM (inactive) and the EC50 [21] was 26 µM (active). The IC50 (cells [22]) was 650 nM (active) and the AC50 [23] was 43.4 µM (active).
With `Cc1cccc(Nc2nc(N)c([N+](=O)[O-])c(NCCO)n2)c1` the AC50 [8] was 15.2 µM (active).
